In brackets after ≈: the same amount, converted by molar mass. Activity calls are given as the source filed them. No cut-off for these calls is given here.
Columns and labels:
[1] = tested on: Mycobacterium tuberculosis; experiment: Antimycobacterial activity against Mycobacterium tuberculosis H37Rv after 2 weeks by microplate alamar blue assay; assay type: functional; conditions: 336 h
[2] = tested on: Mycobacterium tuberculosis; experiment: Antimycobacterial activity against Mycobacterium tuberculosis H37Rv measured after 1 week; assay type: functional; conditions: 168 h
[3] = tested on: Mycobacterium tuberculosis H37Rv; experiment: Inhibition of Mycobacterium tuberculosis H37Rv cytochrome bc1 oxidase assessed as reduction in ATP level measured up to 24 hrs under anaerobic condition
[4] = tested on: Mycobacterium tuberculosis; experiment: Antimycobacterial activity against Mycobacterium tuberculosis H37Rv measured after 2 weeks; assay type: functional; conditions: 336 h
[5] = tested on: Mycobacterium tuberculosis; experiment: Antimycobacterial activity against Mycobacterium tuberculosis H37Rv measured after 6 days by resazurin dye based fluorescence assay; assay type: functional; conditions: 144 h
[6] = Cytotoxicity against human HepG2 cells after 24 to 48 hrs in presence of galactose by trypan blue dye-based hemocytometric method; assay type: cell-based
[7] = tested on: Mycobacterium tuberculosis; experiment: Antimycobacterial activity against Mycobacterium tuberculosis H37Rv BSG001; assay type: functional, organism-based
[8] = Cytotoxicity against human HepG2 cells after 24 to 48 hrs in presence of glucose by trypan blue dye-based hemocytometric method; assay type: cell-based
Escherichia coli = experiment: Antibacterial activity against Escherichia coli 25922; assay type: functional, organism-based; conditions: ATCC 25922
Staphylococcus aureus = experiment: Antibacterial activity against Staphylococcus aureus XEN36; assay type: functional, organism-based
[9] = tested on: Mycolicibacterium smegmatis; experiment: Antibacterial activity against Mycobacterium smegmatis; assay type: functional, organism-based
[10] = tested on: Mycobacteroides abscessus; experiment: Antibacterial activity against Mycobacterium abscessus; assay type: functional, organism-based

| SMILES | MIC [1] | MIC [2] | inhibition [3] | MIC [4] | MIC90 [5] | CC50 [6] | Activity [7] | CC50 [8] | Activity (Escherichia coli) | Activity (Staphylococcus aureus) | Activity [9] | Activity [10] |
| --- | --- | --- | --- | --- | --- | --- | --- | --- | --- | --- | --- | --- |
| COc1ccc2nc(C)cc(OCC(=O)Nc3ccccc3OC)c2c1 | 1.11 µM (≈ 0.391 µg/mL) | 2.21 µM (≈ 0.779 µg/mL) | Active | 53.9 µM (≈ 19 µg/mL) | 0.3 to 3.3 µM (≈ 0.106 to 1.16 µg/mL) | 19.6 µM | inactive | > 142 µM | – | – | – | – |
| Cc1cc(OCC(=O)NCc2ccccc2)c2cc(Br)ccc2n1 | – | – | – | – | 0.3 to 3.3 µM (≈ 0.116 to 1.27 µg/mL) | – | – | – | – | – | – | – |
| Cc1cc(OCC(=O)Nc2ccccc2)c2cc(Br)ccc2n1 | – | – | – | – | 0.3 to 3.3 µM (≈ 0.111 to 1.23 µg/mL) | – | – | – | – | – | – | – |
| COc1ccc2nc(C)cc(OCC(=O)Nc3cccc(C)c3)c2c1 | – | – | – | – | 0.3 to 3.3 µM (≈ 0.101 to 1.11 µg/mL) | – | – | – | – | – | – | – |
| COc1ccc2nc(C)cc(OCC(=O)NCc3ccccc3)c2c1 | 2.32 µM (≈ 0.78 µg/mL) | 3.57 µM (≈ 1.2 µg/mL) | Active | > 148 µM | 0.3 to 3.3 µM (≈ 0.101 to 1.11 µg/mL) | > 149 µM | inactive | > 149 µM | – | – | – | – |
| C#CCNC(=O)COc1cc(C)nc2ccc(OC)cc12 | > 176 µM | > 176 µM | Active | > 176 µM | – | > 176 µM | inactive | > 176 µM | inactive | inactive | inactive | inactive |
| COc1ccccc1NC(=O)COc1cc(C)nc2ccc(C(F)(F)F)cc12 | > 128 µM | > 128 µM | Active | > 128 µM | – | > 128 µM | inactive | > 128 µM | inactive | inactive | inactive | inactive |
| COc1ccc2nc(C)cc(OCC(=O)NCc3ccc4c(c3)OCO4)c2c1 | 0.53 µM (≈ 0.202 µg/mL) | 0.53 µM (≈ 0.202 µg/mL) | Active | 24.7 µM (≈ 9.4 µg/mL) | – | 86.9 µM | inactive | > 131 µM | inactive | inactive | inactive | inactive |
| COc1ccc2nc(C)cc(OCC(=O)Nc3ccc4c(c3)OCO4)c2c1 | 2.13 µM (≈ 0.78 µg/mL) | 4.26 µM (≈ 1.56 µg/mL) | Active | > 136 µM | – | 39.6 µM | inactive | 80 µM | inactive | inactive | inactive | inactive |
